Measured values: ChEMBL document CHEMBL5356988, “Diversely functionalized isoquinolines and their core-embedded heterocyclic frameworks: a privileged scaffold for medicinal chemistry” (RSC Med Chem, 2023)

Assays:
HGC-27 = assay: Antiproliferative activity against human HGC-27 cells assessed as reduction in cell viability by CCK-8 assay; type: functional, cell-based
Interleukin-5 = target: T1, Interleukin-5 (Homo sapiens, UniProt P05113); assay: Inhibition of IL-5 (unknown origin)
T1 sequence (P05113 whole entry): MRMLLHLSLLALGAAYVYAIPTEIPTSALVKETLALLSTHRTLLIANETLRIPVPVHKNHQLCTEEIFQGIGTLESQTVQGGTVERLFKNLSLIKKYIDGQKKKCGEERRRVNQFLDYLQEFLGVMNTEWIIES

Row | Structure (SMILES) | IC50 (HGC-27) | IC50 (Interleukin-5)
1 | Fc1ccc(/C=C/c2nccc3ccccc23)c(F)c1 | 40 nM | –
2 | Fc1ccc(/C=C/c2nccc3ccccc23)cc1F | 80 nM | –
3 | C=C1Oc2c(ccc3cc(C)ncc23)C1=O | – | 2000 nM
